Experiments:
DLD-1 cells [1] = experiment: MTS assay cell viability after drug exposure, DLD-1
Description: (§2) Two human colorectal cancer cell lines (HCT116 and DLD-1) were obtained from ECACC. Cell culturing was performed by means of a φ000 mm/Tissue Culture Dish (IWAKI) with a medium (D-MEM, 2 mM glutamine, 10% fetal bovine serum) at 37° C. under 5% CO2.
(§3) Two colorectal cancer cell lines (HCT116 and DLD-1) were exposed to a drug, and 24 hours and 48 hours after drug exposure, cell viability was determined by means of an MTS assay (CellTiter96™AQueous One Solution Cell Proliferation Assay, Promega). Drug exposure conditions were as follows. 5-FU (single agent) was used at the following 11 concentrations: control (0 μM), 0.001 μM, 0.01 μM, 0.1 μM, 1 μM, 3 μM, 10 μM, 30 μM, 100 μM, 1,000 μM, and 10,000 μM. L-OHP (single agent) was used at the following 11 concentrations; control (0 μM), 0.001 μM, 0.01 μM, 0.1 μM, 0.3 μM, 1 μM, 3 μM, 10 μM, 30 μM, 100 μM, and 1,000 μM. […]
(§4) Sensitivity analysis was performed from viability data calculated from MTS assay results. The presence or absence of combined effect was determined through comparison of viability obtained by exposure to a combination with that obtained by exposure to a single agent at the same concentration as employed at the exposure to the combination.

HCT116 cells [2] = experiment: Intracellular protein level after drug exposure by SELDI-TOF MS, HCT116; format: cell-based, human; conditions: 4 to 48 hours
Description: (§1) Based on the results of (c) above, the drug concentration employed in the exposure test was determined. The 5-FU+L-OHP combination concentration was adjusted to the following four levels: 2 μ[…], and 100 μM+10 μM, the 5-FU concentration (exposure to single agent) was adjusted to 2 μM and 100 μM, and the L-OHP concentration (exposure to single agent) was adjusted to 1 μM and 10 μM. In addition, the exposure test was conducted at a drug-free concentration (control). That is, nine concentrations in total were employed. Drug exposure time was adjusted to the following five periods of time: 0 hour (just before exposure), 4 hours, 12 hours, 24 hours, and 48 hours. After completion of exposure, cell count was performed, and intracellular proteins were extracted. The medium was removed from the dish and washed thrice with ice-cooled PBS. The cells on the dish was collected by scraping with a rubber policeman. The thus-obtained cell suspension was transferred to a 1.5-mL microtube. The cell suspension was centrifuged at 4° C. and 1,200×g for 10 minutes, and the cells were recovered. After removal of the supernatant, a cell lysis buffer (9 mol/L urea, 2% CHAPS, 1 mM DTT, protease-inhibitor cocktail (Sigma)) was added in a volume of 200 μL with respect to 10,000,000 cells. The liquid was subjected to untrasonic treatment under cooling with ice. The thus-treated product was centrifuged at 4° C. and 16,000×g for 20 minutes, and the supernatant was quickly frozen with liquid nitrogen. The frozen product was stored at -80° C. before analysis. An aliquot of the supernatant was subjected to protein quantification (DC Protein Assay Kit, Bio-Rad). The protein sample was mixed with a cell lysis buffer (excluding protease inhibitor), to thereby adjust the protein concentration to 2.5 mg/mL. The liquid was further mixed with a dilution/washing buffer (pH: 4.5, 50 mM sodium acetate buffer) (hereinafter referred to simply as “buffer”), to a protein concentration of 0.5 mg/mL. The thus-prepared sample (100 μL) was applied to spots of a cation-exchange ProteinChip array (CM10, Bio-Rad) which had been conditioned in advance with the same buffer. Incubation was performed for one hour for reaction, and the chip array was washed thrice with the buffer and rinsed twice with milliQ water, followed by drying in air. Energy absorbing molecule (EAM: saturated solution of sinapinic acid in 50% ACN/0.5% TFA) (1.0 μL ([…])) was added to each spot. After the surface of the spot was dried, analysis of the ProteinChip array was performed. […] As an analyzer, ProteinChipTM Reader (Model PCS4000 Personal Edition, Bio-Rad) was used and the analysis was performed under the following conditions: mass range of 0 to 70,000 Da, focus mass of 8,000 Da, energy of 3,000 or 4,000 nJ, and 265 shots/sample. […]

HCT116 cells [3] = experiment: MTS assay cell viability after drug exposure, HCT116
Description: as §2, §3, §4

DLD-1 cells [4] = experiment: Intracellular protein level after drug exposure by SELDI-TOF MS, DLD-1; format: cell-based, human; conditions: DLD-1, SELDI-TOF MS, 4 to 48 hours
Description: as §1

| Structure (SMILES) | cell viability (DLD-1 cells [1]; DLD-1, 1 μM L-OHP, 48 hours) | levels of proteins A to C and G to K after exposure (HCT116 cells [2]) | levels of proteins D and M after exposure (HCT116 cells [2]) | cell viability (HCT116 cells [3]; HCT116, 1 μM L-OHP, 48 hours) | levels of proteins A to C and G to K after exposure (DLD-1 cells [4]) | levels of proteins D and M after exposure (DLD-1 cells [4]) | viability at 100 µM (DLD-1 cells [1]; Homo sapiens, DLD-1, 48 h, read-out: cell viability) [%] | levels of proteins A to C, F, and H to K after exposure (HCT116 cells [2]) | viability at 100 µM (HCT116 cells [3]; Homo sapiens, HCT-116, 48 h, read-out: cell viability) [%] | levels of proteins A to C, F, and H to K after exposure (DLD-1 cells [4]) |
| --- | --- | --- | --- | --- | --- | --- | --- | --- | --- | --- |
| O=C1[O][Pt]2([NH][C@@H]3CCCC[C@H]3[NH]2)[O]C1=O [L-OHP, (SP-4-2)-[(1R,2R)-cyclohexane-1,2-diamine-κN,κN′][ethanedioato(2-)-κO^1,κO^2]platinum] | about 82% | no significant difference | decrease | about 37% | increase | no significant difference | – | – | – | – |
| O=c1[nH]cc(F)c(=O)[nH]1 [5-FU, Fluorouracil] | – | – | decrease | – | – | no significant difference | ~49 | no significant difference | ~24 | increase |

Reference: patent US8765713B2, “Method for determination of sensitivity to anti-cancer agent” (Keio University, priority 2009, dated 2014)
